From patent US11697648B2, “Fused pyrimidine pyridinone compounds as JAK inhibitors” (THERAVANCE BIOPHARMA R&D IP, LLC, priority 2019, dated 2023) come the findings set out here.

Series [1] deals with oxazolone-induced colitis. Briefly: Mouse model of oxazolone-induced colitis. The class given is in vivo, BALB/C mice. The protocol: Assay 6: Mouse Model of Oxazolone-Induced Colitis
Oxazolone-induced colitis is an experimental model that has a histological resemblance to human ulcerative colitis (Heller et al. Immunology, 2002, 17, 629-638). Adult BALB/C mice from Harlan were used in the assay. On day 1, animals were lightly anesthetized with isoflurane and the hairs between the shoulder were carefully removed before oxazolone (4%, 150 μL, 4:1 acetone: olive oil formulation) or vehicle solution was slowly applied for skin sensitization. Seven days after skin sensitization, the mice were fasted around 6 hours prior, anesthetized with ketamine/xylazine injection, and a 1 mL syringe equipped with a 3.5-F catheter, filled with oxazolone solution, was inserted carefully about 4 cm into the colon of the mouse. Following insertion, 50 μL of the oxazolone solution (0.8% in 1:1 ethanol:water formulation) was injected very slowly (over 30 sec using an injection pump) into the colon. Drug treatment (PO, QD or BID or TID) or vehicle was initiated a day prior to the oxazolone intrarectal (IR) challenge. Two-day post oxazolone intrarectal challenge, the disease was assessed by treatment-blinded experimenters for each mouse according to the criteria score: stool consistency score (0, normal; 2, loose; 4, diarrhea), gross bleeding score (0, absence; 2, blood tinged; 4, presence); Combined stool score endpoint=stool consistency score+stool blood score.
Select compounds were tested in the assay.

In series [2] the test system is Caco-2 cell monolayers. As to the kind of experiment: Caco-2 permeation assay. The class given is in vitro ADME. The conditions noted are these: 5 μM, A-B direction, with Verapamil (25 μM). The method in brief:
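Compounds tested at 5 μM in duplicate across Caco-2 monolayers, apical-to-basolateral, with 25 μM verapamil to block P-gp, at 37° C., 5% CO2. Apical and basal samples taken at 0 and 120 min, analysed by LC-MS/MS; Papp (cm/sec) calculated as dQ/(dt×Area×concentration).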

In series [3] the target is JAK3 (Homo sapiens (Human), UniProt P52333). As to the kind of experiment: Biochemical JAK3 kinase assay (LanthaScreen). The conditions noted are these: for JAK3 (pKi)-JAK1 (pKi): selectivity JAK3 over JAK1, difference of pKi. The method in brief:
(§1)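 GST-JAK + GFP-STAT1 peptide, HEPES pH 7.5/MgCl2/EGTA/Brij-35 buffer; cpd preincubation 1 h RT; ATP start, 1 h RT; stop with 10 mM EDTA + 2 nM Tb-anti-pSTAT1; TR-FRET 520/495. 4-parameter IC50 → pKi (Cheng-Prusoff).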
For orientation: TR-FRET usually uses a lanthanide donor and a delayed reading to cut background.

In series [4] the target is JAK1 (Homo sapiens (Human), UniProt P23458). As to the kind of experiment: Biochemical JAK1 kinase assay (LanthaScreen). The method in brief:
as §1

In series [5] the target is Tyk2 (Homo sapiens (Human), UniProt P29597). As to the kind of experiment: Biochemical Tyk2 kinase assay (LanthaScreen). The method in brief:
as §1

Chain of Tyk2 (P29597 whole entry): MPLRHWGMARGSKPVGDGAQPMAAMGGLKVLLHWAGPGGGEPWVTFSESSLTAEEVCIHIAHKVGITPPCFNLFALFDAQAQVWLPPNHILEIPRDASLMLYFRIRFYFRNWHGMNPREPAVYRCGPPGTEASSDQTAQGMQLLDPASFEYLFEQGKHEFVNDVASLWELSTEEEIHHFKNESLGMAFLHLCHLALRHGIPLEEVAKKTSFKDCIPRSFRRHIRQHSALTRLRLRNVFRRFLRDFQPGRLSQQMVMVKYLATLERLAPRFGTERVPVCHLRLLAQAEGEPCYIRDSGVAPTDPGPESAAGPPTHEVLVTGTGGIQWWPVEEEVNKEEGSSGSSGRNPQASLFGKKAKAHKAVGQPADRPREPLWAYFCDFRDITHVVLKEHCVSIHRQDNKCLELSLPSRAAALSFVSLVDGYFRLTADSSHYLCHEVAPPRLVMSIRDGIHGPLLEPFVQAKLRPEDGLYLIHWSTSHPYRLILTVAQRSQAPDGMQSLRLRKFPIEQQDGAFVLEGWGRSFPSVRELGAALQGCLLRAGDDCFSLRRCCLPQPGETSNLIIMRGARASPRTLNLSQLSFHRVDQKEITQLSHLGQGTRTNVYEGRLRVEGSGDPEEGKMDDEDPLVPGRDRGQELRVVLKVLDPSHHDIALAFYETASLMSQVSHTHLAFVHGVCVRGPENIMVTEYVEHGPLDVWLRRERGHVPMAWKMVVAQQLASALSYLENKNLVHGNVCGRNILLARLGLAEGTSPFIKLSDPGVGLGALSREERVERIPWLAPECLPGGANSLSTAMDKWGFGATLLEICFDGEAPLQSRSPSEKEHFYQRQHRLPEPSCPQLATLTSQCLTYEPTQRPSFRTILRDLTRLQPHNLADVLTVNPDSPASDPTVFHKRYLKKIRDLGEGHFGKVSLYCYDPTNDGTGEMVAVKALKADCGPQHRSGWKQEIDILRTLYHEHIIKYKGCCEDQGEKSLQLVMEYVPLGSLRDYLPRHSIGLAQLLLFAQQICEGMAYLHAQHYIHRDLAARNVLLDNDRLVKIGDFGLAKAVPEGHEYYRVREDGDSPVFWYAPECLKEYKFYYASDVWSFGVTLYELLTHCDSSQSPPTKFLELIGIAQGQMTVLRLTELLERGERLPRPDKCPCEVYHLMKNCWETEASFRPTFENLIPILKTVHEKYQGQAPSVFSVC
Chain of JAK1 (P23458 whole entry): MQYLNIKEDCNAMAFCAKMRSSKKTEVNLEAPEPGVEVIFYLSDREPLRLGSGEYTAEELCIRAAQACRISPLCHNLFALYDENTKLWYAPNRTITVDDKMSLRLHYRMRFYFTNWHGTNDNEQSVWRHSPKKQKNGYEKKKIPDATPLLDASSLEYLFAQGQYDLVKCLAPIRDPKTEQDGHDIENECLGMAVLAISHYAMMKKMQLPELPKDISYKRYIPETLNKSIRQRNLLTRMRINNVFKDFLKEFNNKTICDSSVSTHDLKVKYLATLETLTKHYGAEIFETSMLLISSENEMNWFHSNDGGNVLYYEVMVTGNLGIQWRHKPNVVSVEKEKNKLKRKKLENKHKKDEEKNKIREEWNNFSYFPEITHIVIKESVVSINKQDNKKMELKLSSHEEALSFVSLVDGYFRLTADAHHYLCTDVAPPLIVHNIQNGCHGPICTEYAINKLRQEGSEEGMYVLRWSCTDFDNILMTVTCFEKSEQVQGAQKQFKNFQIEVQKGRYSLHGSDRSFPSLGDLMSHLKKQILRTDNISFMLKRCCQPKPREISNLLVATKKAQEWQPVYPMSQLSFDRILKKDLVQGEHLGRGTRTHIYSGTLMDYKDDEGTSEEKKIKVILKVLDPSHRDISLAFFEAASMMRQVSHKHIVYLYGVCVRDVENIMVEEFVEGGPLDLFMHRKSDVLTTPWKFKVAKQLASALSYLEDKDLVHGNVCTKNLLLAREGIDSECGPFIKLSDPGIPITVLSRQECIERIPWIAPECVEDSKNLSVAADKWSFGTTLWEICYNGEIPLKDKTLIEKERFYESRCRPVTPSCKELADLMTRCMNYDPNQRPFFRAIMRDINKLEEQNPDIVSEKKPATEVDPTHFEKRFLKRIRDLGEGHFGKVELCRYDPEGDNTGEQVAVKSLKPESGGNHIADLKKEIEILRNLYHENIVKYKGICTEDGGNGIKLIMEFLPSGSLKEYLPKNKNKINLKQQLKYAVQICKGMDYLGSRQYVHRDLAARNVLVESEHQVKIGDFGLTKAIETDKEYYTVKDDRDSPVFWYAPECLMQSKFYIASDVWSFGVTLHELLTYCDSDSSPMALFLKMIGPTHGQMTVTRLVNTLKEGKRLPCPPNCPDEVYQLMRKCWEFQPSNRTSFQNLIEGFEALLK
Chain of JAK3 (P52333 whole entry): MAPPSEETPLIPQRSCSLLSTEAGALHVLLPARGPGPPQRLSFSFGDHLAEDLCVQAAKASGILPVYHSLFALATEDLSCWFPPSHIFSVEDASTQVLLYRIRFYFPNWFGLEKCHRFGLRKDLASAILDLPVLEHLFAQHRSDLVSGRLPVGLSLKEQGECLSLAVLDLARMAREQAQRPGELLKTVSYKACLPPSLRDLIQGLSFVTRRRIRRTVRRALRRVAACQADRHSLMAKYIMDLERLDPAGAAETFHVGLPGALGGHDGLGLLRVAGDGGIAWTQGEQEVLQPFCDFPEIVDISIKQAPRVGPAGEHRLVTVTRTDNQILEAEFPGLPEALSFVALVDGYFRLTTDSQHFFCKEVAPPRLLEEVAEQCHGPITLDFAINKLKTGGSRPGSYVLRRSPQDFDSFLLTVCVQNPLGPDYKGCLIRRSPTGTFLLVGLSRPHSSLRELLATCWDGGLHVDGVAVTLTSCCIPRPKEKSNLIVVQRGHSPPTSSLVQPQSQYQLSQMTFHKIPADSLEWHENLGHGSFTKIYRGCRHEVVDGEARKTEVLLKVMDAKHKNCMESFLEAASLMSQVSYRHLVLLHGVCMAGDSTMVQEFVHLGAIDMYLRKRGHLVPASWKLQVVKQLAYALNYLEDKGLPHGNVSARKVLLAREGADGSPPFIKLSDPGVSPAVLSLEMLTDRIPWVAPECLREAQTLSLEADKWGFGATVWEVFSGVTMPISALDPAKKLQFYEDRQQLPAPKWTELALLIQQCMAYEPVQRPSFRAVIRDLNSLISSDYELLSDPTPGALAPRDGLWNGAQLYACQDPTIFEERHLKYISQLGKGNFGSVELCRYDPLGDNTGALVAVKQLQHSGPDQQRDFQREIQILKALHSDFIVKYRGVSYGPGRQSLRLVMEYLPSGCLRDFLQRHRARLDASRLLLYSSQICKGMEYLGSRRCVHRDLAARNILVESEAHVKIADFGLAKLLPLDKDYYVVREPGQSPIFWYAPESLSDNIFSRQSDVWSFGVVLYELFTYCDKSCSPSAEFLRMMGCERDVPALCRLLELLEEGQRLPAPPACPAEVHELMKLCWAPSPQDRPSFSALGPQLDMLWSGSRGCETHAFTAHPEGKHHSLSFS

Turning to `C=CC(=O)N1CCN(CCn2c(=O)ccc3cnc(Nc4ccc(N5CCN(C)CC5)cc4)nc32)CC1` [Example 1, 8-(2-(4-acryloylpiperazin-1-yl)ethyl)-2-((4-(4-methylpiperazin-1-yl)phenyl)amino)pyrido[2,3-d]pyrimidin-7(8H)-one], the “combined stool score endpoint as compared with vehicle treated animals” value in series [1] (dose of 1 mg/kg (PO, BID)) was “statistically significant decrease”; in series [1] (dose of 3 mg/kg (PO, BID)), “statistically significant decrease”. Moreover, the “Caco Kp” value in series [2] is “B (B represents a value between 5×10^−6 and 10×10^−6 cm/sec)”. Also, the “JAK 3 (pKi)” value in series [3] is “B (B represents pKi value between 9 and 10 (Ki between 1 nM and 0.1 nM))”. Further, the “JAK3 (pKi)-JAK1 (pKi)” value in series [3] was “A (A represents a value of 3 or above)”. Besides, the “JAK 1 (pKi)” value in series [4] is “E (E represents a pKi value of 7 or below (Ki of 100 nM or above))”. In addition, the “Tyk 2 (pKi)” value in series [5] is reported as “E (E represents a pKi value of 7 or below (Ki of 100 nM or above))”.
For the molecule `C=CC(=O)N1CC(CCn2c(=O)ccc3cnc(Nc4ccc(N5CCN(C(C)=O)CC5)cc4)nc32)C1` [Example 2, 2-((4-(4-acetylpiperazin-1-yl)phenyl)amino)-8-(2-(1-acryloylazetidin-3-yl)ethyl)pyrido[2,3-d]pyrimidin-7(8H)-one], in series [1] (dose of 1 mg/kg (PO, BID)), the “combined stool score endpoint as compared with vehicle treated animals” value is recorded as “statistically significant decrease”. The “Caco Kp” value in series [2] is given as “A (A represents a value below 5×10^−6 cm/sec)”. Further, in series [3], the “JAK 3 (pKi)” value is reported as “A (A represents a pKi value≥10 (Ki≤0.1 nM))” and the “JAK3 (pKi)-JAK1 (pKi)” value was “A (A represents a value of 3 or above)”. Further, the “JAK 1 (pKi)” value in series [4] is “E (E represents a pKi value of 7 or below (Ki of 100 nM or above))”. Moreover, the “Tyk 2 (pKi)” value in series [5] is recorded as “E (E represents a pKi value of 7 or below (Ki of 100 nM or above))”.
On to `C=CC(=O)N1CCN(CCn2c(=O)ccc3cnc(Nc4ccc(N5CCN(C(=O)CCSC)CC5)cc4)nc32)CC1` [Example 4, 8-(2-(4-acryloylpiperazin-1-yl)ethyl)-2-((4-(4-(3-(methylthio)propanoyl)piperazin-1-yl)phenyl)amino)pyrido[2,3-d]pyrimidin-7(8H)-one], for which the “combined stool score endpoint as compared with vehicle treated animals” value in series [1] (dose of 1 mg/kg (PO, BID)) was “statistically significant decrease”. In addition, in series [2], the “Caco Kp” value is “A (A represents a value below 5×10^−6 cm/sec)”. For the same molecule, in series [3], the “JAK 3 (pKi)” value was “B (B represents pKi value between 9 and 10 (Ki between 1 nM and 0.1 nM))”; the “JAK3 (pKi)-JAK1 (pKi)” value is on record as “A (A represents a value of 3 or above)”. Also, in series [4], the “JAK 1 (pKi)” value is “E (E represents a pKi value of 7 or below (Ki of 100 nM or above))”. For the same molecule, in series [5], the “Tyk 2 (pKi)” value was “E (E represents a pKi value of 7 or below (Ki of 100 nM or above))”.
Turning to `C=CC(=O)N1CC(CCn2c(=O)ccc3cnc(Nc4cccc(CN5CCN(C(=O)N(C)C)CC5)c4)nc32)C1` [Example 5, 4-(3-((8-(2-(1-acryloylazetidin-3-yl)ethyl)-7-oxo-7,8-dihydropyrido[2,3-d]pyrimidin-2-yl)amino)benzyl)-N,N-dimethylpiperazine-1-carboxamide], the “combined stool score endpoint as compared with vehicle treated animals” value in series [1] (dose of 1 mg/kg (PO, BID)) is “statistically significant decrease”. Further, in series [1] (dose of 3 mg/kg (PO, BID)), the “combined stool score endpoint as compared with vehicle treated animals” value is “statistically significant decrease”. For the same molecule, the “Caco Kp” value in series [2] is “A (A represents a value below 5×10^−6 cm/sec)”. Further, in series [3], the “JAK 3 (pKi)” value was “A (A represents a pKi value≥10 (Ki≤0.1 nM))” and the “JAK3 (pKi)-JAK1 (pKi)” value was “A (A represents a value of 3 or above)”. Further, the “JAK 1 (pKi)” value in series [4] is “E (E represents a pKi value of 7 or below (Ki of 100 nM or above))”. Moreover, the “Tyk 2 (pKi)” value in series [5] was “E (E represents a pKi value of 7 or below (Ki of 100 nM or above))”.
`C=CC(=O)N1CC(CCn2c(=O)ccc3cnc(Nc4cccc(N5CCN(C(=O)CCSC)CC5)c4)nc32)C1` [Example 7, 8-(2-(1-acryloylazetidin-3-yl)ethyl)-2-((3-(4-(3-(methylthio)propanoyl)piperazin-1-yl)phenyl)amino)pyrido[2,3-d]pyrimidin-7(8H)-one]: the “combined stool score endpoint as compared with vehicle treated animals” value in series [1] (dose of 1 mg/kg (PO, BID)) is reported as “statistically significant decrease”. In addition, the “Caco Kp” value in series [2] was “B (B represents a value between 5×10^−6 and 10×10^−6 cm/sec)”. Moreover, in series [3], the “JAK 3 (pKi)” value is “B (B represents pKi value between 9 and 10 (Ki between 1 nM and 0.1 nM))”; the “JAK3 (pKi)-JAK1 (pKi)” value is reported as “A (A represents a value of 3 or above)”. Besides, in series [4], the “JAK 1 (pKi)” value was “E (E represents a pKi value of 7 or below (Ki of 100 nM or above))”. Moreover, in series [5], the “Tyk 2 (pKi)” value is listed as “E (E represents a pKi value of 7 or below (Ki of 100 nM or above))”.
In the case of `C=CC(=O)N1CCN(CCn2c(=O)ccc3cnc(Nc4cnn(C)c4)nc32)[C@@H](CC)C1` [Example 12, (S)-8-(2-(4-acryloyl-2-ethylpiperazin-1-yl)ethyl)-2-((1-methyl-1H-pyrazol-4-yl)amino)pyrido[2,3-d]pyrimidin-7(8H)-one], the “combined stool score endpoint as compared with vehicle treated animals” value in series [1] (dose of 1 mg/kg (PO, BID)) was “statistically significant decrease”. Further, the “Caco Kp” value in series [2] is “B (B represents a value between 5×10^−6 and 10×10^−6 cm/sec)”. In series [3], the “JAK 3 (pKi)” value was “B (B represents pKi value between 9 and 10 (Ki between 1 nM and 0.1 nM))”; the “JAK3 (pKi)-JAK1 (pKi)” value is recorded as “A (A represents a value of 3 or above)”. Moreover, in series [4], the “JAK 1 (pKi)” value is recorded as “E (E represents a pKi value of 7 or below (Ki of 100 nM or above))”. Besides, the “Tyk 2 (pKi)” value in series [5] is on record as “E (E represents a pKi value of 7 or below (Ki of 100 nM or above))”.
As for `C=CC(=O)N1CC(CCn2c(=O)ccc3cnc(Nc4ccc(N5CCN(C(=O)CSC)CC5)cc4)nc32)C1` [Example 13, 8-(2-(1-acryloylazetidin-3-yl)ethyl)-2-((4-(4-(2-(methylthio)acetyl)piperazin-1-yl)phenyl)amino)pyrido[2,3-d]pyrimidin-7(8H)-one], the “combined stool score endpoint as compared with vehicle treated animals” value in series [1] (dose of 1 mg/kg (PO, BID)) is on record as “statistically significant decrease”; in series [1] (dose of 3 mg/kg (PO, BID)), “statistically significant decrease”. In addition, in series [2], the “Caco Kp” value is “A (A represents a value below 5×10^−6 cm/sec)”. Further, the “JAK 3 (pKi)” value in series [3] was “B (B represents pKi value between 9 and 10 (Ki between 1 nM and 0.1 nM))”. For the same molecule, in series [3], the “JAK3 (pKi)-JAK1 (pKi)” value is “A (A represents a value of 3 or above)”. In series [4], the “JAK 1 (pKi)” value is recorded as “E (E represents a pKi value of 7 or below (Ki of 100 nM or above))”. For the same molecule, the “Tyk 2 (pKi)” value in series [5] is “E (E represents a pKi value of 7 or below (Ki of 100 nM or above))”.
